The series can be described thus: Hydrolysis study of the silane by 1H NMR in D2O. Format: physicochemical. Here is the method:
Hydrolysis of the antimicrobial silanes to activate their surface bonding, an essential step in the coating process, were examined by ^1H NMR in D2O. In a typical experiment, approximately 10 mg of the trimethoxy-hydantoin containing silane was added to D2O and the first was acquired within 2 minutes of the addition. The evolution of methanol with time was measured by acquisition of subsequent incremental spectra on the same sample. Due to the limited solubility of these compounds in water, the amount of methanol hydrolysis product detected, in relation to an internal standard (residual H2O in D2O) was used.
Hydrolysis of the modified alkyloxysilanes is important for their reactivity and adhesion to surfaces. Knowing the rate of hydrolysis allows control over the mixing time and catalyst/acid content required before a coating will optimally bind to a substrate. To better understand the mechanisms of hydrolysis, a simple method of placing the silane in a solvent, such as D2O (deuterated water), and look for a characteristic methanol peak in NMR analysis, which will occur when the methanol is cleaved off by the hydrolysis from the D2O. […] After 2 minutes (the fastest the sample could be analyzed on NMR after mixing), a sharp, distinct methanol peak appears at 3.34 ppm (FIG. 4).

The source of these data is patent publication US20170273307A1, “SILANE-BASED ANTIMICROBIAL COATINGS AND METHODS OF MAKING AND USING THE SAME” (Trent University, priority 2016, published 2017).

Each structure is given as a SMILES string.

Consider `CO[Si](CCCn1cc(CN2C(=O)NC(C)(C)C2=O)nn1)(OC)OC` [the silane], for which, under “approximately 10 mg in D2O”, the “solubility in D2O” value is “not completely soluble”. Besides, the “integration value of methanol peak (3.34 ppm) compared with D2O set as 1” value (in D2O, after 2 minutes) was determined as 0.24. For the same compound, the “time to plateau of methanol peak integration” value (in D2O, spectra recorded every 2 minutes) was 10 min. Further, under “in D2O, uncatalysed, methanol release by 1H NMR”, the “time to nearly complete hydrolysis” value is “less than 2 minutes”.
